Results taken from patent US9850283B2, “Macrocyclic inhibitors of the PD-1/PD-L1 and CD80(B7-1)/PD-L1 protein/protein interactions” (BRISTOL-MYERS SQUIBB COMPANY, priority 2013, dated 2017).
Read-outs that look alike come from different tables or passages of the source. Starred links: 1 amine or outer side, 2 acyl side, 3 side chain; linkers in the order of their positions; H or OH if unused. Positions of bridges follow the written chain, without caps; N, C: chain ends. Non-standard residues stand in square brackets, D forms with d. Residues, ends and D or L forms follow the SMILES beside them. ξ: configuration not given here. ξPro(4S-NH2) = O=C(C1C[C@H](N[*:3])CN1[*:1])[*:2]; Phe(4-CF3) = N[C@@H](Cc1ccc(C(F)(F)F)cc1)C(=O)O; Bip = N[C@@H](Cc1ccc(-c2ccccc2)cc1)C(=O)O; Phe(4-NH2) = Nc1ccc(C[C@H](N)C(=O)O)cc1; Bta = N[C@@H](Cc1csc2ccccc12)C(=O)O; Hyp = O=C(O)[C@@H]1C[C@@H](O)CN1; NMeF = CN[C@@H](Cc1ccccc1)C(=O)O; 3Pal = N[C@@H](Cc1cccnc1)C(=O)O; ξBta = NC(Cc1csc2ccccc12)C(=O)O; NMehSer = CN[C@@H](CCO)C(=O)O; NMeNle = CCCC[C@H](NC)C(=O)O; ξR = N=C(N)NCCCC(N)C(=O)O; NMeA = CN[C@@H](C)C(=O)O; Nle = CCCC[C@H](N)C(=O)O; Dab = NCC[C@H](N)C(=O)O; ξP = O=C(O)C1CCCN1; ξC = NC(CS)C(=O)O; ξS = NC(CO)C(=O)O; Sar = CNCC(=O)O

Tests used:
Human PD-L1/PD-1 = target: T1, Human PD-L1/PD-1 (Homo sapiens, UniProt Q9NZQ7); experiment: HTRF PD-1-Ig/PD-L1-His binding assay (human PD-L1); settings: cluster symbol; read-out: HTRF IC50 cluster
T1 construct: made in house; host or cells: HEK293T
T1 sequence (Q9NZQ7 with tags, fused parts or gaps): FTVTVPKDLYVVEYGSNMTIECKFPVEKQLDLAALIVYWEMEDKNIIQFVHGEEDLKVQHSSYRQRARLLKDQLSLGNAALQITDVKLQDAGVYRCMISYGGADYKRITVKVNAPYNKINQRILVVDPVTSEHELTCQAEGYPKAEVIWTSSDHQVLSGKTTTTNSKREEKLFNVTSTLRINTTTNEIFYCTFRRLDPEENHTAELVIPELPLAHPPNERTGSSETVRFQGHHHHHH
Outline: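 Interaction of Fc-tagged soluble PD-1 with His-tagged soluble PD-L1 is monitored by time-resolved FRET. Donor is europium cryptate anti-Ig (1 nM final) and acceptor is APC anti-His (20 nM final). Assay buffer is dPBS with 0.1% BSA and 0.05% Tween-20.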

[1] = target: T2, LK35.2-hPD-L1 cells / PE-labeled PD-1-Ig (Homo sapiens, UniProt Q9NZQ7); experiment: LK35.2-hPD-L1 cell binding high-content screening assay; format: cell-based; settings: cluster symbol, read-out: CBA IC50 cluster
T2 construct: expressed in transfected cells; host or cells: LK35.2 mouse B cell line
T2 sequence (Q9NZQ7 19-290): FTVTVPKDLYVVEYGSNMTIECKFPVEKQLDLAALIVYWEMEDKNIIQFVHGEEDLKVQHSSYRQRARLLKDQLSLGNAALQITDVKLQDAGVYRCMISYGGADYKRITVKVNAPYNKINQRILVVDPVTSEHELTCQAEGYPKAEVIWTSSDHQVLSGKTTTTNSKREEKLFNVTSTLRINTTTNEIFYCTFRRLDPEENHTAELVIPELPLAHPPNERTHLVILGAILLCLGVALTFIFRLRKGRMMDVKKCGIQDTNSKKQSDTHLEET
Outline: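 Compound effect on PD-1/PD-L1 binding is measured by imaging cell-associated phycoerythrin signal. Human PD-1-Ig (PE on Ig tag, 1 nM final) is applied with compound to a murine B cell line overexpressing human PD-L1 for 1 h at 37 °C in serum-containing RPMI.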

[2] = cell line of CBA not given (LK35.2-hPD-L1 or 293T-hPD-L1)
[3] = cell binding assay, cell line not given

Compound | IC50 (Human PD-L1/PD-1) [nM] | IC50 [1, 2] [nM] | IC50 [1, 3] [nM]
CCCC[C@H]1C(=O)N(C)CC(=O)N[C@@H](CC(=O)O)C(=O)N[C@@H](C(C)C)C(=O)N(C)[C@@H](Cc2ccccc2)C(=O)N[C@@H](Cc2ccc(O)cc2)C(=O)N(C)CC(=O)N[C@@H](Cc2c[nH]c3ccccc23)C(=O)N[C@@H](Cc2ccc(O)cc2)C(=O)N[C@@H](CC(C)C)C(=O)N[C@H](C(=O)NCC(N)=O)CSCC(=O)N[C@@H](Cc2ccc(C(F)(F)F)cc2)C(=O)N(C)[C@@H](Cc2ccccc2)C(=O)N1C [Example 3093] ({CH2CO}-[Phe(4-CF3)][NMeF][NMeNle][Sar]DV[NMeF]Y[Sar]WYLCG-NH2; thioether N-13) | > 30.5 | 4.78 to 72.9 | –
CCCC[C@H]1C(=O)N(C)[C@@H](CCCC)C(=O)N[C@@H](CCC(=O)O)C(=O)N[C@H](C(=O)NCC(N)=O)CSCC(=O)N[C@@H](Cc2ccc(O)cc2)C(=O)N(C)[C@@H](C)C(=O)N[C@@H](CC(N)=O)C(=O)N2CCC[C@H]2C(=O)N[C@@H](Cc2c[nH]cn2)C(=O)N[C@@H](CCC(N)=O)C(=O)N2C[C@H](O)C[C@H]2C(=O)N[C@@H](Cc2c[nH]c3ccccc23)C(=O)N[C@@H](CO)C(=O)N[C@@H](Cc2c[nH]c3ccccc23)C(=O)N1C [Example 5126] ({CH2CO}-Y[NMeA]NPHQ[Hyp]WSW[NMeNle][NMeNle]ECG-NH2; thioether N-14) | 0.385 to 6.74 | – | 4.78 to 72.9
CCCC[C@H]1C(=O)N(C)[C@@H](CCCC)C(=O)N[C@@H](CCCNC(=N)N)C(=O)N[C@H](C(=O)NCC(N)=O)CSCC(=O)N[C@@H](Cc2ccc(O)cc2)C(=O)N(C)[C@@H](C)C(=O)N[C@@H](CC(N)=O)C(=O)N2C[C@@H](N)CC2C(=O)N[C@@H](Cc2cnc[nH]2)C(=O)N[C@@H](CC(C)C)C(=O)N2CCC[C@H]2C(=O)N[C@@H](Cc2c[nH]c3ccccc23)C(=O)N[C@@H](CO)C(=O)NC(Cc2csc3ccccc23)C(=O)N1C (stereo partly drawn) [Example 1046] ({CH2CO}-Y[NMeA]N[ξPro(4S-NH2)]HLPWS[ξBta][NMeNle][NMeNle]RCG-NH2; thioether N-14) | 6.76 to 30.3 | 4.78 to 72.9 | –
CCCC[C@@H]1NC(=O)[C@H](Cc2cnc[nH]2)NC(=O)[C@@H]2CCCN2C(=O)[C@H](CC(N)=O)NC(=O)[C@H](C)N(C)C(=O)[C@H](Cc2ccc(O)cc2)NC(=O)CSCC(C(=O)NCC(N)=O)NC(=O)[C@H](CCCNC(=N)N)NC(=O)[C@H](CCCC)N(C)C(=O)[C@H](CCCC)N(C)C(=O)[C@H](Cc2csc3ccccc23)NC(=O)[C@H](CO)NC(=O)[C@H](Cc2c[nH]c3ccccc23)NC(=O)[C@H]2CCCN2C1=O (stereo partly drawn) [Example 9002] ({CH2CO}-Y[NMeA]NPH[Nle][dP]WS[Bta][NMeNle][NMeNle]R[ξC]G-NH2; thioether N-14) | 6.76 to 30.3 | – | 4.78 to 72.9
CCCC[C@H]1C(=O)N(C)[C@@H](CCOC)C(=O)N[C@@H](CCCNC(=N)N)C(=O)NC(C(=O)NCC(N)=O)CSCC(=O)N[C@@H](Cc2ccc(O)cc2)C(=O)N(C)[C@@H](C)C(=O)N[C@@H](CC(=O)O)C(=O)N2CCC[C@H]2C(=O)N[C@@H](Cc2cnc[nH]2)C(=O)N[C@@H](CC(C)C)C(=O)N2CCC[C@H]2C(=O)N[C@@H](Cc2c[nH]c3ccccc23)C(=O)N[C@@H](CO)C(=O)N[C@@H](Cc2csc3ccccc23)C(=O)N1C (stereo partly drawn) [Example 9008] ({CH2CO}-Y[NMeA]DPHLPWS[Bta][NMeNle][NMehSer](Me)R[ξC]G-NH2; thioether N-14) | 0.385 to 6.74 | – | 0.158 to 4.71
CCCC[C@H]1C(=O)N(C)[C@@H](CCCC)C(=O)N[C@@H](C)C(=O)N[C@H](C(=O)NCC(N)=O)CSCC(=O)N[C@@H](Cc2ccc(O)cc2)C(=O)N(C)[C@@H](C)C(=O)N[C@@H](CC(N)=O)C(=O)N2CCC[C@H]2C(=O)N[C@@H](Cc2cnc[nH]2)C(=O)N[C@@H](CCC(N)=O)C(=O)N2C[C@H](O)C[C@H]2C(=O)N[C@@H](Cc2c[nH]c3ccccc23)C(=O)N[C@@H](CO)C(=O)N[C@@H](Cc2c[nH]c3ccccc23)C(=O)N1C [Example 5047] | 6.76 to 30.3 | – | 4.78 to 72.9
CCCC[C@H]1C(=O)N(C)CC(=O)N[C@@H](CC(=O)O)C(=O)N[C@@H](C(C)C)C(=O)N(C)[C@@H](Cc2ccccc2)C(=O)N[C@@H](Cc2ccc(O)cc2)C(=O)N(C)CC(=O)N[C@@H](Cc2c[nH]c3ccccc23)C(=O)N[C@@H](Cc2ccc(O)cc2)C(=O)N[C@@H](CC(C)C)C(=O)N[C@H](C(=O)NCC(N)=O)CSCC(=O)N[C@@H](Cc2ccccc2)C(=O)N[C@@H](Cc2cccnc2)C(=O)N1C [Example 3602] ({CH2CO}-F[3Pal][NMeNle][Sar]DV[NMeF]Y[Sar]WYLCG-NH2; thioether N-13) | 6.76 to 30.3 | – | > 74.3
CCCC[C@H]1C(=O)N(C)[C@@H](CCCC)C(=O)N[C@@H](CCN)C(=O)N[C@H](C(=O)NCC(N)=O)CSCC(=O)N[C@@H](Cc2ccc(O)cc2)C(=O)N(C)[C@@H](C)C(=O)N[C@@H](CC(N)=O)C(=O)N2CCC[C@H]2C(=O)N[C@@H](Cc2cnc[nH]2)C(=O)N[C@@H](CCC(=O)O)C(=O)N2C[C@H](O)C[C@H]2C(=O)N[C@@H](Cc2csc3ccccc23)C(=O)N[C@@H](C)C(=O)N[C@@H](Cc2c[nH]c3ccccc23)C(=O)N1C [Example 5053] ({CH2CO}-Y[NMeA]NPHE[Hyp][Bta]AW[NMeNle][NMeNle][Dab]CG-NH2; thioether N-14) | > 30.5 | – | > 74.3
CCCC[C@H]1C(=O)N(C)[C@@H](CCCC)C(=O)N[C@@H](C)C(=O)N[C@H](C(=O)NCC(N)=O)CSCC(=O)N[C@@H](Cc2ccc(O)cc2)C(=O)N(C)[C@@H](C)C(=O)N[C@@H](CC(N)=O)C(=O)N2CCC[C@H]2C(=O)N[C@@H](Cc2cnc[nH]2)C(=O)N[C@@H](CCC(=O)O)C(=O)N2C[C@H](O)C[C@H]2C(=O)N[C@@H](Cc2c[nH]c3ccccc23)C(=O)N[C@@H](CO)C(=O)N[C@@H](Cc2c[nH]c3ccccc23)C(=O)N1C [Example 1168] | 0.385 to 6.74 | 0.158 to 4.71 | –
CCCC[C@H]1C(=O)N(C)[C@@H](CCCC)C(=O)N[C@@H](CO)C(=O)N[C@H](C(=O)NCC(N)=O)CSCC(=O)N[C@@H](Cc2ccccc2)C(=O)N(C)[C@@H](C)C(=O)N[C@@H](CC(N)=O)C(=O)N2CCC[C@H]2C(=O)N[C@@H](Cc2cnc[nH]2)C(=O)N[C@@H](CC(C)C)C(=O)N(C)CC(=O)N[C@@H](Cc2c[nH]c3ccccc23)C(=O)N[C@@H](CO)C(=O)N[C@@H](Cc2c[nH]c3ccccc23)C(=O)N1C [Example 10001] ({CH2CO}-F[NMeA]NPHL[Sar]WSW[NMeNle][NMeNle]SCG-NH2; thioether N-14) | 6.76 to 30.3 | – | > 74.3
CCCC[C@H]1C(=O)N(C)[C@@H](CCCC)C(=O)N[C@@H](C)C(=O)N[C@H](C(=O)NCC(N)=O)CSCC(=O)N[C@@H](Cc2ccc(O)cc2)C(=O)N(C)[C@@H](C)C(=O)N[C@@H](CC(=O)O)C(=O)N2CCC[C@H]2C(=O)N[C@@H](Cc2cnc[nH]2)C(=O)N[C@@H](CCC(N)=O)C(=O)N2C[C@H](O)C[C@H]2C(=O)N[C@@H](Cc2c[nH]c3ccccc23)C(=O)N[C@@H](CCN)C(=O)N[C@@H](Cc2c[nH]c3ccccc23)C(=O)N1C [Example 5039] ({CH2CO}-Y[NMeA]DPHQ[Hyp]W[Dab]W[NMeNle][NMeNle]ACG-NH2; thioether N-14) | 0.385 to 6.74 | – | 0.158 to 4.71
CCCC[C@H]1C(=O)N(C)CC(=O)N[C@@H](CC(=O)O)C(=O)N[C@@H](C(C)C)C(=O)N(C)[C@@H](Cc2ccccc2)C(=O)N[C@@H](Cc2ccc(N)cc2)C(=O)N(C)CC(=O)N[C@@H](Cc2c[nH]c3ccccc23)C(=O)N[C@@H](Cc2ccc(O)cc2)C(=O)N[C@@H](CC(C)C)C(=O)N[C@H](C(=O)NCC(N)=O)CSCC(=O)N[C@@H](Cc2ccccc2)C(=O)N(C)[C@@H](Cc2ccccc2)C(=O)N1C [Example 3139] ({CH2CO}-F[NMeF][NMeNle][Sar]DV[NMeF][Phe(4-NH2)][Sar]WYLCG-NH2; thioether N-13) | 6.76 to 30.3 | 4.78 to 72.9 | –
CCCC[C@H]1C(=O)N(C)[C@@H](CCCC)C(=O)N[C@@H](CCN)C(=O)N[C@H](C(=O)NCC(N)=O)CSCC(=O)N[C@@H](Cc2ccc(O)cc2)C(=O)N(C)[C@@H](C)C(=O)N[C@@H](CC(N)=O)C(=O)N2CCC[C@H]2C(=O)N[C@@H](Cc2cnc[nH]2)C(=O)N[C@@H](CCC(N)=O)C(=O)N2C[C@H](O)C[C@H]2C(=O)N[C@@H](Cc2c[nH]c3ccccc23)C(=O)N[C@@H](CCN)C(=O)N[C@@H](Cc2c[nH]c3ccccc23)C(=O)N1C [Example 5043] ({CH2CO}-Y[NMeA]NPHQ[Hyp]W[Dab]W[NMeNle][NMeNle][Dab]CG-NH2; thioether N-14) | 6.76 to 30.3 | – | 0.158 to 4.71
CCCC[C@H]1C(=O)N(C)[C@@H](CCCC)C(=O)NC(CCCNC(=N)N)C(=O)NC(C(=O)NCC(N)=O)CSCC(=O)N[C@@H](Cc2ccccc2)C(=O)N(C)[C@@H](C)C(=O)N[C@@H](CC(N)=O)C(=O)N2CCCC2C(=O)N[C@@H](Cc2cnc[nH]2)C(=O)N[C@@H](CC(C)C)C(=O)N(C)CC(=O)N[C@@H](Cc2c[nH]c3ccccc23)C(=O)NC(CO)C(=O)N[C@@H](Cc2ccc(-c3ccccc3)cc2)C(=O)N1C (stereo partly drawn) [Example 1028] ({CH2CO}-F[NMeA]N[ξP]HL[Sar]W[ξS][Bip][NMeNle][NMeNle][ξR][ξC]G-NH2; thioether N-14) | > 30.5 | > 74.3 | –
CCCC[C@H]1C(=O)N(C)CC(=O)N[C@@H](CC(=O)O)C(=O)N[C@@H](C(C)C)C(=O)N(C)[C@@H](Cc2ccccc2)C(=O)N[C@@H](Cc2ccc(O)cc2)C(=O)N(C)CC(=O)N[C@@H](Cc2csc3ccccc23)C(=O)N[C@@H](Cc2ccc(O)cc2)C(=O)N[C@@H](CC(C)C)C(=O)N[C@H](C(=O)NCC(N)=O)CSCC(=O)N[C@@H](Cc2ccccc2)C(=O)N(C)[C@@H](Cc2ccccc2)C(=O)N1C [Example 3062] ({CH2CO}-F[NMeF][NMeNle][Sar]DV[NMeF]Y[Sar][Bta]YLCG-NH2; thioether N-13) | 0.385 to 6.74 | 4.78 to 72.9 | –
